Laboratory results from patent US20240270821A1, “GIP/GLP1/GCG TRI-RECEPTOR AGONISTS AND USES THEREOF” (priority 2023, published 2024).
Where two headings read alike, the source gives them in different places. Starred links: 1 amine or outer side, 2 acyl side, 3 side chain; linkers in the order of their positions; H or OH if unused. Non-standard residues stand in square brackets, D forms with d. Residues, ends and D or L forms follow the SMILES beside them. Groups on a side chain read outwards from the residue. *: point of attachment. C18 diacid = O=C(O)CCCCCCCCCCCCCCCCC(=O)*; αMePhe(2-F) = C[C@](N)(Cc1ccccc1F)C(=O)O; γGlu = O=C(O)[C@H](CCC(=O)[*:2])N[*:1]; αMe4Pal = C[C@](N)(Cc1ccncc1)C(=O)O; αMeY = C[C@](N)(Cc1ccc(O)cc1)C(=O)O; 4Pal = N[C@@H](Cc1ccncc1)C(=O)O; αMeL = CC(C)C[C@](C)(N)C(=O)O; αMeS = C[C@](N)(CO)C(=O)O; Orn = NCCC[C@H](N)C(=O)O; AEEA = NCCOCCOCC(=O)O; Aib = CC(C)(N)C(=O)O

Tests used:
hGIPR [1] = biological target: T1, hGIPR (Homo sapiens, UniProt P48546); test: Functional cAMP activity in the presence of 1% HSA; type: cell-based; details: read-out: cAMP Rel EC50, hGIPR
T1 sequence (P48546 22-466): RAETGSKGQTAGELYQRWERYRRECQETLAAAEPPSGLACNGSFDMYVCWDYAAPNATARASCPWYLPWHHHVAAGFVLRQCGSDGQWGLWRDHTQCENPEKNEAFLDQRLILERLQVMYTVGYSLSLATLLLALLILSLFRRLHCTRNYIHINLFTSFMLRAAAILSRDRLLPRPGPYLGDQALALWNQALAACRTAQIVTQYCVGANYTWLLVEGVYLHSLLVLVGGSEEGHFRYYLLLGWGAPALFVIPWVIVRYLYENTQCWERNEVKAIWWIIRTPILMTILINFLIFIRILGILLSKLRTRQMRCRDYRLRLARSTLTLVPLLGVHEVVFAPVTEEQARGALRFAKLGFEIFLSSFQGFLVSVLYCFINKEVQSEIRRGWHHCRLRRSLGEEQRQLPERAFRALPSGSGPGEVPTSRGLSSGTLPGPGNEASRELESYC

hGcgR = hGcgR (Homo sapiens, UniProt P47871); test: Functional cAMP activation in the presence of 0.1% casein (no HSA); type: cell-based; details: read-out: Relative cAMP EC50, hGcgR;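 further: intracellular cAMP rise after 30 min at 37 °C, read by HTRF against a cAMP standard curve, scaled from buffer only (0%) to maximal control ligand response (100%)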
Sequence of hGcgR (P47871 26-477): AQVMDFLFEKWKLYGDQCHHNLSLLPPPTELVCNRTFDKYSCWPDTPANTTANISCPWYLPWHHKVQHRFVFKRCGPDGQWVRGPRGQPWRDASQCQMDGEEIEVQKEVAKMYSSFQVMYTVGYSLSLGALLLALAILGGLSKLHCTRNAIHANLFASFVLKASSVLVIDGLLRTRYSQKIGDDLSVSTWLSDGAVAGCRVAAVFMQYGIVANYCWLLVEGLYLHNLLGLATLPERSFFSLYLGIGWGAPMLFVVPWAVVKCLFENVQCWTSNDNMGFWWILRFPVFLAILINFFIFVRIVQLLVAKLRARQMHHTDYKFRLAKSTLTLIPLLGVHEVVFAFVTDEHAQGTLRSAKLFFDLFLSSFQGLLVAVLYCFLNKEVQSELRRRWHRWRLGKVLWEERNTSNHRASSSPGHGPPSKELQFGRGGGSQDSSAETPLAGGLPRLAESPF

in vivo [2] = test: in vivo; set-up: species or system Sprague Dawley rats; details: male, Sprague Dawley, rat, 4 mg/kg
Description: The pharmacokinetics of the exemplary analogs are evaluated following a single subcutaneous (SC) administration of 10 nmol/kg (dissolved in 40 mM Tris pH8) or single 4 mg/kg (mixed with 250 mM sodium decanoate/C10 in 40 mM Tris pH8) intrajejunal (IJ) administration to male Sprague Dawley rats. Blood samples are collected over 96 hours following SC administration and 72 hours following IJ dosing, and resulting individual plasma concentrations are used to calculate pharmacokinetic parameters. Peptide plasma (K3 EDTA) concentrations are determined using a qualified LC/MS method that measured the intact mass of the analog. Each peptide and an analog as an internal standard are extracted from rat plasma using methanol. A High Resolution Instrument was used for LC/MS detection.

human GcgR = human GcgR (Homo sapiens, UniProt P47871); test: Functional cAMP activity in the presence of 1% HSA; type: cell-based; details: read-out: cAMP Rel EC50, hGcgR
Sequence of human GcgR (P47871 26-477): as above

hGIPR [3] = biological target: T1, hGIPR; test: Functional cAMP activation in the presence of 0.1% casein (no HSA); type: cell-based; details: read-out: Relative cAMP EC50, hGIPR;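 on Relative cAMP EC50, hGIPR: intracellular cAMP rise after 30 min at 37 °C read by HTRF against a standard curve, scaled between buffer alone (0%) and top control ligand concentration (100%), four-parameter fit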;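 on Relative cAMP EC50, hGLP-1R: intracellular cAMP rise after 30 min at 37 °C read by HTRF, normalized between buffer only (0%) and maximal control ligand (100%), four-parameter variable-slope fit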
hGLP-1R [4] = biological target: T2, hGLP-1R (Homo sapiens, UniProt P43220); test: Functional cAMP activity in the presence of 1% HSA; type: cell-based; details: read-out: cAMP Rel EC50, hGLP-1R
T2 sequence (P43220 24-463): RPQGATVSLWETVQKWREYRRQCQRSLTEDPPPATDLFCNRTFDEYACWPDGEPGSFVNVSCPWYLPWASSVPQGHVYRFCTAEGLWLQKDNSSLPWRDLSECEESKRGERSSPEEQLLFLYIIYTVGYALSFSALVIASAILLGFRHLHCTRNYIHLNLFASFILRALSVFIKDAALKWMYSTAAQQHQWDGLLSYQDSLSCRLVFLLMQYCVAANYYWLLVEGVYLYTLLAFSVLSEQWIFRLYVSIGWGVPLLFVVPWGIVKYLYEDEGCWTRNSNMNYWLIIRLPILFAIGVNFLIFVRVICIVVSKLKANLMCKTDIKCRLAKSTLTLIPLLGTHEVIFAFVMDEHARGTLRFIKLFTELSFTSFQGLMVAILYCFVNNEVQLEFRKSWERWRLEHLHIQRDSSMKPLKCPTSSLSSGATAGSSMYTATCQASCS

hGLP-1R [5] = biological target: T2, hGLP-1R; test: Functional cAMP activation in the presence of 0.1% casein (no HSA); type: cell-based; details: read-out: Relative cAMP EC50, hGLP-1R;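 on Relative cAMP EC50, hGIPR: intracellular cAMP rise after 30 min at 37 °C read by HTRF against a standard curve, scaled between buffer alone (0%) and top control ligand concentration (100%), four-parameter fit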;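 on Relative cAMP EC50, hGLP-1R: intracellular cAMP rise after 30 min at 37 °C read by HTRF, normalized between buffer only (0%) and maximal control ligand (100%), four-parameter variable-slope fit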
[6] = Body weight in diet-induced obese C57BL/6 mice; type: in vivo; details: 10 nmol/kg SC QD, percent of starting weight, DIO mice, mean ± SEM n=5
In short: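 Daily weighing gave body weight as percent of starting value (mean±SEM, n=5) over 9-16 days of SC dosing, once daily or every 3 days, shortly before lights-off. Animals were weight-randomized male C57BL/6 DIO mice, 41-50 g, fed ad libitum on a calorie-rich diet.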

in vivo [7] = test: in vivo; set-up: species or system cynomolgus monkeys; details: both sexes, cynomolgus monkey, iv, 10 nmol/kg
Description: (§1) A study is designed to evaluate the oral bioavailability of Example polypeptides in cynomolgus monkeys. […] Standards and controls are prepared in cynomolgus monkey plasma, and any dilutions required to bring samples into the quantitative range are also performed in control cynomolgus monkey plasma. To control assay variability, an internal standard (IS) is added to all the standards and samples. The Examples and IS are extracted from 100% monkey plasma (50 μL) by protein precipitation using isopropyl alcohol and methanol (50:50 v/v). The samples are then centrifuged (3000 rpm for 10 minutes) and the supernatant is transferred to a Siricco Protein Precipitation Plate. The samples are loaded on a Sep-Pak tC18 SPE microelution plate that is conditioned with 2% formic acid in acetonitrile and water. The compounds are then washed with 2% formic acid in water and eluted using 2% formic acid in acetonitrile into a plate containing 5× Invitrosol and 1% formic acid in water prior to injecting an aliquot (10 μL) on to Xselect CSH C18, 3.5 μm, 2.1×20 mm for LC/MS analysis.
Blood samples are collected over 504 hours. Plasma is harvested from blood samples by centrifugation and stored frozen (−70° C.) until analysis. Plasma concentrations of the molecules are detected using the bioanalytical method described above.

[8] = Pepsin stability assay in simulated gastric fluid; type: in vitro ADME; details: pH 1.2, % Intact (SD)
In short: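 Peptides (10 mg/mL stock in 50 mM Tris pH 8.0) incubated with pepsin A in simulated gastric fluid at 37° C. with shaking. Aliquots taken at time intervals were quenched with 100 mM ammonium bicarbonate pH 9, and intact peptide remaining was quantified by LC/MS.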

in vivo [9] = test: in vivo; set-up: species or system cynomolgus monkeys; details: both sexes, cynomolgus monkey, po; for bioavailability: 10 mg; for AUC(0-inf) / CL/F / Cmax / Tmax / half-life: 300 mg
Description: as §1
[…] Blood samples are collected up to 504 hours post-dose. Plasma is harvested from blood samples by centrifugation and stored frozen (−70° C.) until analysis. Plasma concentrations of the molecules are detected using the bioanalytical method described above.

[10] = test system: Intestinal organoid from Göttingen minipig jejunum tissue, 2D monolayer; test: Cell based in vitro permeability (Papp) assay; type: in vitro ADME
In short: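 Papp calculated from LC/MS peptide levels in apical and basal compartments. Basal sampling at 20 min with C10 present, across monolayers grown from dissociated minipig jejunal organoids in transwells.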

human GLP1-R = human GLP1-R (Homo sapiens, UniProt P43220); test: GLP1-R internalization assay in HEK293 cells; type: cell-based; details: for EC50: HEK293 cells expressing SNAP-GLP-1R, read-out: GLP1R Internalization EC50; for Internalization % TOP: normalized to maximum concentration of GLP-1 (100%)
Sequence of human GLP1-R (P43220 24-463): as above

[11] = in the presence of 0.1% casein (no HSA), geometric mean

| Compound | EC50 (hGIPR [1]) | EC50 (hGcgR; [11]) | CL/F (in vivo [2]) | half-life (in vivo [2]) | EC50 (human GcgR) | EC50 (hGIPR [3]; [11]) | EC50 (hGLP-1R [4]) | EC50 (hGLP-1R [5]; [11]) | Body weight (%) ([6]; 7 days) | Body weight (%) ([6]; 14 days) | EC50 (hGcgR) | EC50 (hGIPR [3]) | AUC(0-inf) (in vivo [7]) | clearance (in vivo [7]) | half-life (in vivo [7]) | remaining at 0.25 h, 0.4 mg/mL [8] | bioavailability (in vivo [9]) | AUC(0-inf) (in vivo [9]) | CL/F (in vivo [9]) | Cmax (in vivo [9]) | also measured |
| --- | --- | --- | --- | --- | --- | --- | --- | --- | --- | --- | --- | --- | --- | --- | --- | --- | --- | --- | --- | --- | --- |
| CC[C@H](C)[C@H](NC(=O)[C@H](Cc1ccccc1)NC(=O)[C@H](C)NC(=O)C(C)(C)NC(=O)[C@H](CCC(N)=O)NC(=O)[C@H](C)NC(=O)[C@H](CCCCNC(=O)COCCOCCNC(=O)CC[C@H](NC(=O)CCCCCCCCCCCCCCCCC(=O)O)C(=O)O)NC(=O)[C@H](CCCN)NC(=O)[C@H](CC(=O)O)NC(=O)[C@H](CC(C)C)NC(=O)[C@](C)(CC(C)C)NC(=O)[C@@H](NC(=O)[C@](C)(CO)NC(=O)[C@H](Cc1ccc(O)cc1)NC(=O)[C@H](CC(=O)O)NC(=O)[C@H](CO)NC(=O)[C@@H](NC(=O)[C@](C)(Cc1ccccc1F)NC(=O)[C@@H](NC(=O)CNC(=O)[C@H](CCC(N)=O)NC(=O)C(C)(C)NC(=O)[C@@H](N)Cc1c[nH]cn1)[C@@H](C)O)[C@@H](C)O)[C@@H](C)CC)C(=O)N[C@H](CCC(=O)O)C(=O)N[C@@H](Cc1ccc(O)cc1)C(=O)N[C@@H](CC(C)C)C(=O)N[C@@H](CC(C)C)C(=O)N[C@@H](CCC(=O)O)C(=O)NCC(=O)NCC(=O)N1CCC[C@H]1C(=O)N[C@@H](CO)C(=O)N[C@@H](CO)C(=O)NCC(=O)N[C@@H](CCC(=O)O)C(=O)N1CCC[C@H]1C(=O)N1CCC[C@H]1C(=O)N1CCC[C@H]1C(=O)N[C@@H](CCC(=O)O)C(N)=O [Example 381] (H-H[Aib]QGT[αMePhe(2-F)]TSDY[αMeS]I[αMeL]LD[Orn]K([AEEA-γGlu-C18 diacid])AQ[Aib]AFI[dE]YLLEGGPSSGEPPPE-NH2) | 7.01 nM | 1.39 nM | 9.83 mL/min/kg | 8.3 h | 176 nM | 0.0156 nM | 24.5 nM | 0.157 nM | – | – | – | – | – | – | – | – | – | – | – | – | – |
| CC[C@H](C)[C@H](NC(=O)[C@H](Cc1ccccc1)NC(=O)[C@H](C)NC(=O)C(C)(C)NC(=O)[C@H](CCC(N)=O)NC(=O)[C@H](C)NC(=O)[C@H](CCCCNC(=O)COCCOCCNC(=O)CC[C@H](NC(=O)CCCCCCCCCCCCCCCCC(=O)O)C(=O)O)NC(=O)[C@H](CCCCN)NC(=O)[C@H](CC(=O)O)NC(=O)[C@H](CC(C)C)NC(=O)[C@H](CC(C)C)NC(=O)[C@@H](NC(=O)[C@H](CO)NC(=O)[C@H](Cc1ccc(O)cc1)NC(=O)[C@H](CC(=O)O)NC(=O)[C@H](CO)NC(=O)[C@@H](NC(=O)[C@](C)(Cc1ccccc1F)NC(=O)[C@@H](NC(=O)CNC(=O)[C@H](CCC(N)=O)NC(=O)C(C)(C)NC(=O)[C@@H](N)Cc1ccc(O)cc1)[C@@H](C)O)[C@@H](C)O)[C@@H](C)CC)C(=O)N[C@@H](CCC(=O)O)C(=O)N[C@@H](Cc1ccc(O)cc1)C(=O)N[C@@H](CC(C)C)C(=O)N[C@@H](CCC(=O)O)C(=O)N[C@@H](CCC(=O)O)C(=O)NCC(=O)NCC(=O)N1CCC[C@H]1C(=O)N[C@@H](CO)C(=O)N[C@@H](CO)C(=O)NCC(=O)N[C@@H](C)C(=O)N1CCC[C@H]1C(=O)N1CCC[C@H]1C(=O)N1CCC[C@H]1C(=O)N[C@@H](CO)C(N)=O [Example 387] (H-Y[Aib]QGT[αMePhe(2-F)]TSDYSILLDKK([AEEA-γGlu-C18 diacid])AQ[Aib]AFIEYLEEGGPSSGAPPPS-NH2) | 5.64 nM | 2.14 nM | 14 mL/min/kg | 9.2 h | 184 nM | 0.0276 nM | 26.5 nM | 0.255 nM | – | – | – | – | – | – | – | – | – | – | – | – | – |
| H-Y[Aib]QGT[αMePhe(2-F)]TSD[4Pal][αMeS]I[αMeL]LD[Orn]K([AEEA-γGlu-C18 diacid])AQ[αMe4Pal]EFI[dE][αMeY]LIEGGPSSGAPPPSGSE-NH2 [Example 712] | 0.584 nM | – | – | – | 171 nM | – | 30.8 nM | – | 69.4 ± 0.60 % | 63.61 ± 3.73 % | 1.36 nM | 0.00689 nM | 12.4 ± 0.862 µM·h | 0.0135 mL/min/kg | 54 ± 6.09 h | 92.4% | 0.9% | 6.18 µM·h | 1.85 mL/min/kg | 124 nM | remaining at 0.5 h, 0.4 mg/mL [8]: 91.4%; remaining at 1 h, 0.4 mg/mL [8]: 93.5%; Tmax (in vivo [9]): 3.75 h; half-life (in vivo [9]): 51.8 h; EC50 (hGLP-1R [5]): 0.258 nM; Relative Papp (Compared to internal standard) [10]: 0.60; EC50 (human GLP1-R): 35.3 nM; Internalization % TOP (human GLP1-R): 109% |
| H-Y[Aib]QGT[αMePhe(2-F)]TSD[4Pal][αMeS]I[αMeL]LD[Orn]K([AEEA-γGlu-C18 diacid])AQ[αMe4Pal]EFI[dE][αMeY]LVEGGPSSGAPPPSGS-NH2 [Example 694] | 0.787 nM | – | – | – | 206 nM | – | 25 nM | – | 71.92 ± 1.28 % | 69.77 ± 2.96 % | 2.04 nM | 0.00781 nM | 10.7 ± 2.75 µM·h | 0.0163 mL/min/kg | 50.7 ± 16.8 h | 101% | 2.4% | 14.8 µM·h | 0.873 mL/min/kg | 353 nM | Tmax (in vivo [9]): 3.5 h; half-life (in vivo [9]): 50.7 h; EC50 (hGLP-1R [5]): 0.253 nM; Relative Papp (Compared to internal standard) [10]: 0.60; EC50 (human GLP1-R): 21.8 nM; Internalization % TOP (human GLP1-R): 97.3% |
